Each structure is given as a SMILES string.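 Compound exposure: 48 hours, 5 concentrations, 96-well plates. At the TGI there is no net growth.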

Test in all cases: inhibition of tumour cell growth, NCI panel, 48 h
Experiment [1] relates to DU-145 prostate.
Experiment [2] concerns HCC-2998 colon.
For experiment [3], the system named is HOP-92 NSCLC.
In experiment [4] the test system is HS 578T breast.
Experiment [5] has as its system HT29 colon.
Experiment [6] deals with K-562 leukemia.
In experiment [7] the test system is MCF7 breast.
For experiment [8], the system named is OVCAR-3 ovarian.
The subject of experiment [9] is OVCAR-5 ovarian.
Experiment [10] deals with OVCAR-8 ovarian.
Experiment [11] deals with PC-3 prostate.
For experiment [12], the system named is SF-268 CNS.
Experiment [13] relates to SF-295 CNS.
Experiment [14] concerns SK-MEL-2 melanoma.
For experiment [15], the system named is SN12C renal.
Experiment [16] relates to UACC-257 melanoma.
Experiment [17] relates to SK-MEL-28 melanoma.
Experiment [18] relates to SK-MEL-5 melanoma.
Experiment [19] deals with T-47D breast.
The test system of experiment [20] is MDA-MB-231 breast.

On to `O=C1CCC2(c3ccc(F)cc3)Nc3ncncc3N12` (stereo unspecified), for which the TGI in experiment [1], in experiment [2], in experiment [3], in experiment [4], in experiment [5] and in experiment [6] was over 10 µM throughout. In addition, the TGI in experiment [7], in experiment [8], in [9], in [10], in [11] and in [12] was over 10 µM throughout. Moreover, the TGI in experiment [13], in [14], in [15] and in experiment [16] was over 10 µM each time.

Regarding `Clc1ccc(N=Cc2cc3cc(Br)ccc3nc2Cl)cc1`, the TGI in experiment [1], in experiment [2], in [3], in [5], in experiment [6] and in experiment [9] was over 50 µM in each case. The TGI in experiment [10] was over 50 µM; in experiment [11] it was over 50 µM; in [12], over 50 µM; in experiment [14], 48.3 µM; in experiment [17], over 50 µM; in [18] it was 45.2 µM. The TGI in experiment [15], in experiment [19] and in [16] was over 50 µM each time.

For `O=C1/C(=C/c2cccc3ccccc23)Cc2ccccc21`, the TGI was over 100 µM in experiment [2]; 73.3 µM in experiment [4]; over 100 µM in experiment [5]; over 100 µM in experiment [6]; 38.9 µM in experiment [7]; 91.3 µM in [8]. For the same compound, the TGI in experiment [9] was over 100 µM; in [10] it was over 100 µM; in experiment [11], 54.3 µM; in experiment [12], 65.7 µM; in experiment [17], over 100 µM; in experiment [18] it was over 100 µM. In experiment [15], this compound registered a TGI of over 100 µM.

In the case of `C/C(CC(=O)Nc1ccc([N+](=O)[O-])cc1)=N/N=C(N)N`, the TGI in experiment [2], in experiment [3], in [5], in [6], in experiment [8] and in experiment [9] was over 100 µM in each case. Moreover, the TGI in experiment [10], in experiment [12], in experiment [13], in experiment [14], in experiment [17] and in experiment [18] was over 100 µM each time. For the same compound, the TGI in experiment [16] was over 100 µM.

On to `N=c1c2ccccc2nc2oc3ccc(Cl)cc3n12`, for which the TGI was over 100 µM in experiment [2]; 20.3 µM in [4]; over 100 µM in [5]; over 100 µM in experiment [6]; over 100 µM in experiment [20]; 31.4 µM in experiment [8]. Besides, the TGI in [9] is 47.1 µM; in [10] it was 69.1 µM; in experiment [11], over 100 µM; in experiment [12], over 100 µM; in experiment [13] it was 35.6 µM; in [14], 51.3 µM. For the same compound, the TGI is over 100 µM in [17], over 100 µM in experiment [18], 61.5 µM in experiment [15] and over 100 µM in experiment [16].

Take `O=C1CSc2ccncc2N1`: the TGI in experiment [2], in experiment [5], in experiment [6], in [8], in experiment [9] and in experiment [10] was over 100 µM in each case. The TGI in experiment [12], in experiment [13], in experiment [14], in experiment [17], in [18] and in [15] was over 100 µM throughout. In experiment [16], this compound returned a TGI of over 100 µM.

With `CCCN1CN(C(C(=O)N[C@@H]2C(=O)N3C(C(=O)O)=C(C)CSC23)c2ccccc2)CSC1=S` (stereo partly specified), the TGI in [3], in experiment [5], in experiment [6], in experiment [8], in [9] and in experiment [10] was over 100 µM throughout. The TGI in experiment [12], in experiment [13], in experiment [14], in experiment [17], in experiment [18] and in experiment [15] was over 100 µM in each case. The TGI in experiment [16] was over 100 µM.

On to `CC1(C)CC[C@]2(C(=O)O)CC[C@]3(C)C(=CC[C@@H]4[C@@]5(C)CC[C@@H]6OC(C)(C)OC[C@@]6(C)[C@@H]5CC[C@]43C)[C@H]2C1`, for which the TGI in experiment [1] amounted to 31.9 µM; in experiment [2] it was 27.5 µM; in [5], 18.8 µM; in experiment [6], 40.6 µM; in [20], 12.9 µM; in experiment [8], 18.5 µM. Also, the TGI is 32.2 µM in [9]; over 100 µM in experiment [10]; 19.1 µM in [11]; 36.5 µM in experiment [12]; 27.6 µM in [13]; 32.6 µM in experiment [14]. For the same compound, the TGI in experiment [17] was 29.2 µM; in experiment [15], 13 µM; in experiment [19] it was 38.8 µM; in experiment [16] it was 31.8 µM.

Turning to `Cc1ccccc1Nc1cn(CCOc2ccccc2)c(=O)n(CCOc2ccccc2)c1=O`, the TGI in [1], in experiment [2], in experiment [3], in [4], in experiment [5] and in experiment [6] was over 100 µM throughout. Further, the TGI in experiment [7], in experiment [8], in experiment [9], in [11], in experiment [12] and in experiment [13] was over 100 µM in each case. Further, the TGI in experiment [17], in experiment [18], in [15] and in [16] was over 100 µM throughout.

Values taken from PubChem BioAssay (NCI).
